Results from patent US8680113B2, “BMI-1 protein expression modulators” (PTC Therapeutics, Inc., priority 2008, dated 2014).

Test system: Bmi-1
Assay: Sandwich ELISA Assay (Bmi-1 ELISA in HT-1080 cells)
Type: cell-based, human
How it was run: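 HT-1080 cells (8000/well) were treated with compounds in 0.5% final DMSO for 40-48 h at 37°C and then lysed. Bmi-1 in lysates was measured by sandwich ELISA: overnight capture at 4°C on mouse monoclonal, rabbit anti-Bmi-1 detection, HRP anti-rabbit, TMB. OD450 was read with an OD570 reference against a recombinant GST-Bmi-1 standard curve (0-8000 pg/mL).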

IC50, < 500 nM:
Cc1nc2ccc(F)cn2c1-c1csc(Nc2ccc(C(C)(C)C)cc2)n1 [Cpd 164, N-(4-tert-butylphenyl)-4-(6-fluoro-2-methylimidazo[1,2-a]pyridin-3-yl)-1,3-thiazol-2-amine]
Cc1nc2ccc(F)cn2c1-c1csc(Nc2ccc(Br)cc2Cl)n1 [Cpd 165, N-(4-bromo-2-chlorophenyl)-4-(6-fluoro-2-methylimidazo[1,2-a]pyridin-3-yl)-1,3-thiazol-2-amine]
Fc1ccccc1Nc1nccc(-c2cnc3ccccn23)n1 [Cpd 166, N-(2-fluorophenyl)-4-(imidazo[1,2-a]pyridin-3-yl)pyrimidin-2-amine]
CC(=O)c1ccc(N(C)c2nccc(-c3c(C)nc4ccccn34)n2)cc1 [Cpd 167, 1-(4-{methyl[4-(2-methylimidazo[1,2-a]pyridin-3-yl)pyrimidin-2-yl]amino}phenyl)ethanone]
Cc1ccc(Nc2nccc(-c3c(C)nc4ncccn34)n2)cc1 [Cpd 168, 4-(2-methylimidazo[1,2-a]pyrimidin-3-yl)-N-(4-methylphenyl)pyrimidin-2-amine]
Cc1ccc(Nc2nccc(-c3c(C)nc4ccccn34)n2)cc1 [Cpd 169, 4-(2-methylimidazo[1,2-a]pyridin-3-yl)-N-(4-methylphenyl)pyrimidin-2-amine]
Cc1ccc(N(C)c2nccc(-c3c(C)nc4ncccn34)n2)cc1 [Cpd 170, N-methyl-4-(2-methylimidazo[1,2-a]pyrimidin-3-yl)-N-(4-methylphenyl)pyrimidin-2-amine]
CCCc1nc2ccccn2c1-c1csc(Nc2ccc(OC)c(F)c2)n1 [Cpd 171, N-(3-fluoro-4-methoxyphenyl)-4-(2-propylimidazo[1,2-a]pyridin-3-yl)-1,3-thiazol-2-amine]
CCCc1nc2ccccn2c1-c1csc(Nc2ccc(OC)c(Cl)c2)n1 [Cpd 172, N-(3-chloro-4-methoxyphenyl)-4-(2-propylimidazo[1,2-a]pyridin-3-yl)-1,3-thiazol-2-amine]
CCCc1nc2ccccn2c1-c1csc(Nc2ccc(OCC)cc2)n1 [Cpd 173, N-(4-ethoxyphenyl)-4-(2-propylimidazo[1,2-a]pyridin-3-yl)-1,3-thiazol-2-amine]
CCCc1nc2ccccn2c1-c1csc(Nc2ccc(I)cc2)n1 [Cpd 174, N-(4-iodophenyl)-4-(2-propylimidazo[1,2-a]pyridin-3-yl)-1,3-thiazol-2-amine]
CCCc1nc2ccccn2c1-c1csc(Nc2ccc3c(c2)OCO3)n1 [Cpd 175, N-(1,3-benzodioxol-5-yl)-4-(2-propylimidazo[1,2-a]pyridin-3-yl)-1,3-thiazol-2-amine]
CCCc1nc2ccccn2c1-c1csc(Nc2ccc(N(C)C)cc2)n1 [Cpd 176, N,N-dimethyl-N′-[4-(2-propylimidazo[1,2-a]pyridin-3-yl)-1,3-thiazol-2-yl]benzene-1,4-diamine]
CCCc1nc2ccccn2c1-c1csc(Nc2ccc(C(C)=O)cc2)n1 [Cpd 177, 1-(4-{[4-(2-propylimidazo[1,2-a]pyridin-3-yl)-1,3-thiazol-2-yl]amino}phenyl)ethanone]
CCCc1nc2ccccn2c1-c1csc(Nc2ccc(Cl)cc2)n1 [Cpd 178, N-(4-chlorophenyl)-4-(2-propylimidazo[1,2-a]pyridin-3-yl)-1,3-thiazol-2-amine]
CCCc1nc2ccccn2c1-c1csc(Nc2ccc(Br)cc2)n1 [Cpd 179, N-(4-bromophenyl)-4-(2-propylimidazo[1,2-a]pyridin-3-yl)-1,3-thiazol-2-amine]
CCCc1nc2ccccn2c1-c1csc(Nc2ccc(OC)cc2)n1 [Cpd 180, N-(4-methoxyphenyl)-4-(2-propylimidazo[1,2-a]pyridin-3-yl)-1,3-thiazol-2-amine]
CCCc1nc2ncccn2c1-c1csc(Nc2ccc(OC)c(F)c2)n1 [Cpd 181, N-(3-fluoro-4-methoxyphenyl)-4-(2-propylimidazo[1,2-a]pyrimidin-3-yl)-1,3-thiazol-2-amine]
CCCc1nc2ncccn2c1-c1csc(Nc2ccc3c(c2)OCO3)n1 [Cpd 182, N-(1,3-benzodioxol-5-yl)-4-(2-propylimidazo[1,2-a]pyrimidin-3-yl)-1,3-thiazol-2-amine]
CCCc1nc2ncccn2c1-c1csc(Nc2ccc(N(C)C)cc2)n1 [Cpd 183, N,N-dimethyl-N′-[4-(2-propylimidazo[1,2-a]pyrimidin-3-yl)-1,3-thiazol-2-yl]benzene-1,4-diamine]
CCCc1nc2ncccn2c1-c1csc(Nc2ccc(Br)cc2)n1 [Cpd 184, N-(4-bromophenyl)-4-(2-propylimidazo[1,2-a]pyrimidin-3-yl)-1,3-thiazol-2-amine]
CCCc1nc2ncccn2c1-c1csc(Nc2ccc(I)cc2)n1 [Cpd 185, N-(4-iodophenyl)-4-(2-propylimidazo[1,2-a]pyrimidin-3-yl)-1,3-thiazol-2-amine]
CCCc1nc2ncccn2c1-c1csc(Nc2ccc(OC)cc2)n1 [Cpd 186, N-(4-methoxyphenyl)-4-(2-propylimidazo[1,2-a]pyrimidin-3-yl)-1,3-thiazol-2-amine]
CCCc1nc2ncccn2c1-c1csc(Nc2ccccc2)n1 [Cpd 187, N-phenyl-4-(2-propylimidazo[1,2-a]pyrimidin-3-yl)-1,3-thiazol-2-amine]
COc1cccc(Nc2nc(-c3c(C)nc4ccccn34)cs2)c1 [Cpd 188, N-(3-methoxyphenyl)-4-(2-methylimidazo[1,2-a]pyridin-3-yl)-1,3-thiazol-2-amine]
Cc1ccc(N(C)c2nccc(-c3c(C)nc4ccccn34)n2)cc1 [Cpd 189, N-methyl-4-(2-methylimidazo[1,2-a]pyridin-3-yl)-N-(4-methylphenyl)pyrimidin-2-amine]
Cc1nc2ccccn2c1-c1ccnc(Nc2cccc(O)c2)n1 [Cpd 190, 3-{[4-(2-methylimidazo[1,2-a]pyridin-3-yl)pyrimidin-2-yl]amino}phenol]
Cc1ccc(Nc2nc(-c3c(C)nc4ccccn34)cs2)cc1 [Cpd 191, 4-(2-methylimidazo[1,2-a]pyridin-3-yl)-N-(4-methylphenyl)-1,3-thiazol-2-amine]
CCc1ccc(Nc2nc(-c3c(C)nc4ccccn34)cs2)cc1 [Cpd 192, N-(4-ethylphenyl)-4-(2-methylimidazo[1,2-a]pyridin-3-yl)-1,3-thiazol-2-amine]
CCN(CC)c1ccc(Nc2nc(-c3c(C)nc4ccccn34)cs2)cc1 [Cpd 193, N,N-diethyl-N′-[4-(2-methylimidazo[1,2-a]pyridin-3-yl)-1,3-thiazol-2-yl]benzene-1,4-diamine]
CC(=O)Nc1ccc(Nc2nc(-c3c(C)nc4ccccn34)cs2)cc1 [Cpd 194, N-(4-{[4-(2-methylimidazo[1,2-a]pyridin-3-yl)-1,3-thiazol-2-yl]amino}phenyl)acetamide]
